Data taken from a melting point compilation (Tetko et al.; mined from patent text by program, amines drawn as free bases though some values may be those of a salt).

melting point	SMILES
266 to 268 °C	O=C1CCC(N2Cc3cc(CNC(=O)c4ccccc4)ccc3C2=O)C(=O)N1 (stereo unspecified)
280 to 282 °C	O=C(O)CCc1c(C(=O)O)[nH]c2cc(I)cc(I)c12
196 to 199 °C	COc1cccc(Cc2cc3cccc(-c4cccc(C(=O)Nc5ccc(F)nc5)c4)c3o2)c1
> 230 °C	COC(=O)C1=C(C)Nc2c(c(=O)n(C)c(=O)n2C)C1c1cccc([N+](=O)[O-])c1 (stereo unspecified)
90.8 to 92.1 °C	CC1(C)COC(=S)N(Cc2ccccc2N)C1
57 to 60 °C	CCCCCCCCCCC[C@H](C[C@H](O)[C@H](CCCCCC)C(=O)O)OCc1ccccc1
194 to 196 °C	COc1ccc(-n2c3c(c(=O)c4cccnc42)CC(C)O3)cc1 (stereo unspecified)
166 to 168 °C	C/C(=N\OC(=O)c1ccc(CN2CCOCC2)cc1)[C@H]1CC[C@H]2[C@@H]3CCC4=CC(=O)CC[C@]4(C)[C@H]3CC[C@]12C
119 to 120 °C	CC(=O)NC(COCc1cc(C)cc(C)c1)Cc1cccc2ccccc12 (stereo unspecified)
139 to 141 °C	O=C(NS(=O)(=O)NC(=O)OCc1ccccc1)OCc1ccccc1
188 to 190 °C	CCc1cc2cc(O)ccc2c(Oc2ccc(/C=C/C(=O)O)cc2)c1-c1ccccc1
143 to 144 °C	CS(=O)(=O)n1cc(C2CCN(S(=O)(=O)N3CCCC[C@@H]3C(=O)NO)CC2)c2cc(C#N)ccc21
201 °C	Cc1cccc(N2CCN(c3ccc(S(C)(=O)=O)nn3)CC2)c1
178 to 179 °C	CS(=O)(=O)c1ccc(/C(=C2\CCN(CCC(=O)O)C2=O)c2ccc(Cl)cc2)cc1
84 °C	COC(=O)c1ccc(OC)c2c1OCCO2
85 to 87 °C	Cc1cccc2c1nc(COc1ccc(Cl)cc1)n2CCC(C)CN1CCCC1 (racemic)
89 to 90 °C	COc1ccc2c(c1)CCN(C(C)=O)CC2
81 to 83 °C	Cc1noc2c1C(=O)C(CCCN1CCC(C(=O)c3ccc(F)cc3)CC1)CC2 (stereo unspecified)
> 280 °C	Cc1nn(-c2ccc(C(=O)O)cc2)c(O)c1-c1c(C)nn(-c2ccc(C(=O)O)cc2)c1O
122 to 123 °C	Cc1ccccc1-n1c(C)nc2cscc2c1=O
165 to 168 °C	CNC(=NC#N)NCCCCc1csc(NC(=N)N)n1
147 to 148 °C	CCCCCCNc1nc[nH]c2nccc1-2
286 to 290 °C	CCOC(=O)c1ncc2[nH]c3ccc(Br)cc3c2n1
152 to 154 °C	Cn1cc(-c2cc(OC3CCCC3)c(Cl)cc2F)c(=O)cc1C(F)(F)F

melting point	SMILES
198 to 199 °C	CC(=O)OCC1OC(n2c(=O)sc3c(=O)[nH]c(N)nc32)C(OC(C)=O)C1OC(C)=O (stereo unspecified)
135 to 138 °C	CC1=C(C)C(=O)N(OC(=S)N(C)C)C1=O
89 °C	COc1ccc(-c2nc(C(=O)Cl)c(C)o2)cc1
175 °C	CC(C)(C)OC(=O)NCC(=O)Oc1cc2c(c3ccccc13)Nc1ccccc1S2
210 °C	CC(C)(OCc1n[nH]c2ccc([N+](=O)[O-])cc12)C(=O)O
150 to 152 °C	CN1CCN(CCCn2cc(Br)c3c4c(c(-c5ccccc5Cl)cc32)C(=O)NC4=O)CC1
82 to 85 °C	OCC1Cc2ccccc2OC1CO (stereo unspecified)
235 to 240 °C	Cn1ccnc1Sc1ccc(Nc2c(C#N)cnc3cc(/C=C/CN4CCOCC4)ccc23)cc1Cl
160 to 165 °C	CCNc1nc(Cl)c(C#N)c(NC(C)C)n1
97 to 99 °C	Cc1ccc(C2CCN(C(=O)CCC(=O)c3ccc4c(c3)CN(C)CC4)CC2)cc1
115 to 116 °C	c1ccc(-n2c(Cc3cccnc3)nc3ccccc32)cc1
67 to 70 °C	CCCS(=O)(=O)c1ccc(NC(=O)CCCCCCCCCC=C(F)F)cc1
118 to 121 °C	CC[C@@H]1NC(=O)C(F)(F)[C@@H]1O
135 to 136 °C	COc1cc(O)c(C=O)c(-c2nc(C)no2)c1C
172 to 175 °C	Cc1ccc(C(=O)n2c(C)c(C(C)C(=O)O)c3cc4c(cc32)OCO4)cc1 (stereo unspecified)
272 to 276 °C	CC1(C)Oc2ccc(S(=O)(=O)Nc3ccccc3)cc2C(N2CCCCC2=O)C1O (stereo unspecified)
186 °C	COc1ccccc1-c1cc(N2CCN(Cc3ccc(C)cc3)CC2)n2ccc(=O)ccc12
164 to 165 °C	Oc1cccc(-c2nc(COc3ccc(CCCn4ccnc4)cc3)co2)c1
192 to 196 °C	O=C1CC(=O)CC(c2ccc(Cl)cc2Cl)C1
145 to 147 °C	O=[N+]([O-])C12C3C4C1C1(Cl)C2C3C41[N+](=O)[O-] (stereo unspecified)
176 to 178 °C	CCCOc1ccc(CNC=C2C(=O)N(O)C(=O)c3ccccc32)cc1O
96 to 103 °C	COC(=O)CCSCc1ccc2oc(-c3ccc4ccc(Cl)cc4n3)cc2c1
194 to 197 °C	COc1cc(N2CCN(C3CCN(c4cccc5cccnc45)CC3)CC2)c2ncccc2c1
47 to 48 °C	Fc1ccc(Br)nc1Br

melting point	SMILES
110 to 111 °C	Cn1nc(Nc2cc(-c3ccc(F)c(-c4c(C(N)=O)sc5c4C(O)C(C)(C)C5)c3)nn(C)c2=O)cc1CN1CCC1 (stereo unspecified)
> 275 °C	Cc1cc(C)c(CNc2cccc(S(=O)(=O)O)c2)c(C)c1
323 to 325 °C	O=C1NC(=O)c2c1cc1ccc3c(c1c2-c1cccnc1)OCO3
121 to 122 °C	Cn1cc(SCc2ccccc2)c(=O)c(-c2cccc(C(F)(F)F)c2)c1
145 to 147 °C	CCCc1c(OCCCSc2ccc(C(=O)O)cn2)ccc(C(C)=O)c1O
153 °C	CC(O)C=Cc1ccc2c(c1)Cc1ccccc1-2 (stereo unspecified)
157 to 158 °C	COC(=O)Cc1ccc(S(C)(=O)=O)c(S(C)(=O)=O)c1
298 to 300 °C	O=C(O)c1c(-c2ccccc2)oc2ccccc2c1=O
> 250 °C	NCC1Cc2cc(-c3ccc(C(F)(F)F)cc3)cc(F)c2O1 (stereo unspecified)
235 °C	CC(CN(C)C)Oc1ccc(/C=C/C(=O)O)cc1 (stereo unspecified)
244 to 246 °C	CCOc1ccc2[nH]c3c([N+](=O)[O-])ccc(Cl)c3c(=O)c2c1
95 to 97 °C	COCCNc1nccc(Oc2ccc(NC(=O)c3cc(F)cc(N4CCOCC4)c3)c3ccccc23)n1
190 to 194 °C	Cn1nc(C(F)(F)F)c(C(=O)O)c1Sc1ccc(F)cc1
250 °C	COC(=O)c1ccc(-c2oc3cc(NS(C)(=O)=O)ccc3c(=O)c2OS(C)(=O)=O)cc1
86 to 88 °C	CC(=O)OCc1ccc(Cl)cc1C(O)c1ccccc1 (stereo unspecified)
276 to 277 °C	COc1cccc2c(NCc3ccccc3C)cc(C(=O)O)nc12
96 to 97 °C	Cc1cc2c(c(C)c1SC#N)CCC(C)(C)O2
172 to 174 °C	O=C(O)Cc1csc(-c2cccc(O)c2)n1
102 to 104 °C	O=C(NCC#CCN1CCN(c2ncccn2)CC1)c1nsc2ccccc12
85 to 87 °C	COc1ccc(C(C)C)cc1-c1cc(-c2nnnn2C2CCNC2)c(OCc2ccccc2)cc1OCc1ccccc1 (stereo unspecified)
66 °C	C=CCS(=O)CCNC(N)=O (stereo unspecified)
118 to 119 °C	O=[N+]([O-])c1ccc(Cc2nc3c(s2)CCCC3)cc1
52 to 53 °C	CN(C)C(=O)NCCCCC1CCSS1 (stereo unspecified)
167 to 169 °C	COc1ccc2nccc(NC(=O)N3CCN(CC(=O)c4cnc5ccccc5n4)CC3)c2n1

melting point	SMILES
224 to 227 °C	CCOCc1nc2c(N)nc3c(c2n1CCCCS(N)(=O)=O)CCCC3
112 °C	COc1cc(-c2nc3ccc(OCCCN(C)C)cc3n2Cc2ccccc2)cc(OC)c1OC
219 to 223 °C	O=C(c1c(Cl)cccc1Cl)N(C(=O)c1c(Cl)cccc1Cl)c1cc(-c2ccc(Cl)cc2)on1
53 to 55 °C	COC(=O)c1cc(Cl)c(C)c(N)c1Cl
190 °C	CCN(CC)C(=O)Nc1ccc(Cn2c(=O)n(C3CCCCC3)c3cc(Cl)ccc32)c(OC)c1
125 to 126 °C	O=c1cc(C2CCCC2)oc2ccc(OCCCCCCCl)cc12
240 °C	O=C(O)c1cc(N2C(=O)C3=C(CCCC3)C2=O)ccc1O
136 to 138 °C	CS(=O)(=O)NCCn1c(CCO)nc2c(N)nc3cccnc3c21
83 to 86 °C	O=C(O)CCCCCCCCCCC(=O)c1ccccc1
152 to 154 °C	CCC1(CC)Cc2c(C(=O)O)ccc(OC)c2O1
84 to 86 °C	N#Cc1ccccc1OC[C@H]1CO1
143 to 146 °C	COc1ccc2c(c1)C(Cc1ccnc(F)c1)(Cc1ccnc(F)c1)c1ccccc1-2
196 to 198 °C	NS(=O)(=O)c1ccc(C(=O)NCCCN2CCOCC2)cc1
118 to 125 °C	Cc1cc(N)c(C)c(Cl)c1Oc1ccc(Cl)c2ccccc12
151 to 153 °C	CC(C)c1cccc(C(C)C)c1NC(=O)CN1CN(c2ccccc2)C2(CCCCC2)C1
121 °C	CCOC(=O)c1oc(-c2ccccc2)cc(=O)c1Cl
177 to 178 °C	COc1cc(COc2nn(-c3ccccc3)cc2/C=C/C(C)=O)ccc1OCc1nc(-c2ccco2)oc1C
45 to 50 °C	COc1cccc([C@H]2CCCN2[S@@](=O)C(C)(C)C)c1
98 to 100 °C	FC(F)(F)c1ccn(-c2cc(-c3ccc4c(c3)OCO4)nc3ccccc23)n1
133 to 136 °C	Cc1cccc(-c2[nH]c(C(C)C)nc2-c2cccc(-c3ccc(NS(=O)(=O)C4CC4)cn3)c2)n1
138 °C	Cc1ncc(C(=O)NCc2cc(C(F)(F)F)cc(C(F)(F)F)c2)c(-c2ccccc2Br)n1
161 to 163 °C	CN1CCC(O)(c2cc3ccccc3s2)CC1
78 °C	COC(=O)c1c(OC(C)=O)cc2cc(Br)ccc2c1C

SMILES	melting point
O=C(O)C(=O)c1cn(Cc2ccc(F)cc2)c2ccc(OCCc3ccc(F)cc3)cc12	171 to 173 °C
Nc1c(F)c(N2CCNCC2)cc2c1c(=O)c(C(=O)O)cn2C1CC1	214 to 216 °C
C[N+](C)([O-])S(=O)(=O)c1ccc2c(c1)N(C1CN3CCC1CC3)c1ccccc1S2=O (stereo unspecified)	130 °C
Cc1c(F)c(N2CCNCC2)c(C)c2c1c(=O)c(C(=O)O)cn2C1CC1	185 to 187 °C
O=[N+]([O-])N=c1ccccn1Cc1ccccc1	125 to 126 °C
CN1Cc2c(C#CC3(O)CCCC3)ncn2-c2cccc(Cl)c2C1=O	207 to 208 °C
